From PMC12607858, “GNAT family Pat2 is required for long-term survival on glycerol and catalyzes lysine acetylation of glycerol kinase in hypersaline-adapted archaea” (mBio, 2025)

How the values were obtained:
[1] = target: T1, HvPat2 (HvPat2-SII) (Haloferax volcanii, UniProt D4GSS9, N147A); experiment: anti-acetyllysine immunoblot of in vitro acetylation of His-HvGlpK; type: biochemical; conditions: acetyl donor 0.2 mM; 6 uM enzyme; co-substrate HvGlpK 2 uM; 50 mM HEPES pH 7.5, 2 M NaCl, 1 mM DTT, 37 C, 3 h
T1 construct: gene pat2; full-length single GNAT domain, C-terminal StrepII tag kept; expressed in and purified from H. volcanii H26 delta-pat2; 196 residues with tag, 21,636 Da, monomer
T1 sequence (D4GSS9 entry or part of it N147A): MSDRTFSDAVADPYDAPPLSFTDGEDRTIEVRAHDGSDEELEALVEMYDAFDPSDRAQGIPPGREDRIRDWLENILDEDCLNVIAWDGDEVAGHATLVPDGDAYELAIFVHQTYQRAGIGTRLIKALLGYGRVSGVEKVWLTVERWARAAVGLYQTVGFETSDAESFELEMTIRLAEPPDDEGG

[2] = target: T2, HvPat2 (HvPat2-SII) (Haloferax volcanii, UniProt D4GSS9); experiment: as above; type: biochemical; conditions: acetyl donor 0.2 mM; 6 uM enzyme; co-substrate HvGlpK 2 uM; 50 mM HEPES pH 7.5, 2 M NaCl, 1 mM DTT, 37 C, 3 h
T2 construct: gene pat2; full-length single GNAT domain, C-terminal StrepII tag kept; expressed in and purified from H. volcanii H26 delta-pat2; 196 residues with tag, 21,636 Da, monomer
T2 sequence (D4GSS9 entry or part of it): as the sequence (D4GSS9 entry or part of it N147A) above, with A147N counted along it

For CC(=O)SCCNC(=O)CCNC(=O)[C@H](O)C(C)(C)COP(=O)(O)OP(=O)(O)OC[C@H]1O[C@@H](n2cnc3c(N)ncnc32)[C@H](O)[C@@H]1OP(=O)(O)O [acetyl-CoA], the “anti-acetyllysine immunoblot of in vitro acetylation of His-HvGlpK” value [1] was “The V110A variant showed minimal activity, while N147A exhibited reduced activity” and the “anti-acetyllysine immunoblot of in vitro acetylation of His-HvGlpK” value [2] was “when His-HvGlpKEc was incubated with both HvPat2 and acetyl-CoA, a strong signal for lysine acetylation”.
